Measurements published in patent publication US8318667B2, “Glucagon receptor antagonist compounds, compositions containing such compounds and methods of use” (Merck Sharp & Dohme Corp., priority 2009, dated 2012).

Molecular target: T1, human glucagon receptor (Homo sapiens, UniProt P47871)
T1 construct: expressed in transfected cells; cell membranes used
Assay: Glucagon Receptor Binding Assay (125I-glucagon, SPA, CHO cell membranes)
Details: for IC50: inhibition of 125I-glucagon binding to membranes of CHO cells expressing cloned human glucagon receptor, value for the most active stereoisomer prepared; for relative potency as glucagon receptor antagonist among the stereoisomers prepared: comparison of stereoisomers of the same example, assay not stated
Protocol: A stable CHO (Chinese hamster ovary) cell line expressing cloned human glucagon receptor was maintained as described (Chicchi, et. al. J Biol Chem 272, 7765-9(1997); Cascieri, et. al. J Biol Chem 274, 8694-7(1999)). To determine antagonistic binding affinity of compounds, 0.001-0.003 mg of cell membranes from these cells were pre-incubated with 0.100 mg WGA-coated PVT SPA beads (Amersham) for 20 minutes at room temperature in […] of a buffer containing 50 mM Tris-HCl (pH 7.5), 5 mM MgCl2, 2 mM EDTA, 0.1% BSA and 3% glycerol in Costar 384 well plates with clear bottoms (#3706). Next, 25 μL of ^125I-Glucagon (New England Nuclear, MA) (1×10^−14 mol per well) and either 1 μL solutions of test compounds or 0.001 mM unlabeled glucagon or DMSO were added and mixed. After 4-12 hours incubation at room temperature, the radioactivity bound to the cell membranes was determined in a radioactive emission detection counter (Wallac-Microbeta). Data were analyzed using the Data Analyzer software program of Merck & Co., Inc. The IC50 values were calculated using non-linear regression analysis assuming single-site competition.

T1 sequence (P47871 26-477): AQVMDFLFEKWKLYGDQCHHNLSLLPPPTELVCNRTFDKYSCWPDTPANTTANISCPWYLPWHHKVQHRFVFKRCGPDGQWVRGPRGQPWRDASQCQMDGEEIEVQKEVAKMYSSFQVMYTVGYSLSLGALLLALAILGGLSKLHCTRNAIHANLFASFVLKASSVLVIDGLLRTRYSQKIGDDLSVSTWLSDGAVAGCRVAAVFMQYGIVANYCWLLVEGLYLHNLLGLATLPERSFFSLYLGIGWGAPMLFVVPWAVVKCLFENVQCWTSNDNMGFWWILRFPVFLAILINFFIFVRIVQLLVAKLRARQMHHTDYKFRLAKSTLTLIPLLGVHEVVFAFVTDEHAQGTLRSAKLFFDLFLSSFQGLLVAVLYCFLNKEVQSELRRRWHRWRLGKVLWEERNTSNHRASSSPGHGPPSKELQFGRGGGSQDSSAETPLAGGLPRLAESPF

| IC50 [nM] | Structure (SMILES) | relative potency as glucagon receptor antagonist among the stereoisomers prepared |
| --- | --- | --- |
| 0.8 | CCC[C@H](c1ccc(C(=O)NCCC(=O)O)cc1)[C@H](c1ccc(Cl)cc1)c1n[nH]c2c(F)cc(C)cc12 (single isomer, unassigned) [Example 37] |  |
| 0.7 | CCCC(c1ccc(C(=O)NCCC(=O)O)cc1)C(c1ccc(Cl)cc1)c1nn(C)c2c(C)cc(Cl)cc12 (single isomer, unassigned) [Example 11, N-[4-(1-{(4-CHLOROPHENYL)[1,7-DIMETHYL-5-CHLORO-1H- INDAZOL-3-YL]METHYL}BUTYL)BENZOYL]-β-ALANINE] |  |
| 0.8 | CCCC(c1ccc(C(=O)NCCC(=O)O)cc1)C(c1ccc(Cl)cc1)c1n[nH]c2ccc(C(F)(F)F)cc12 (single isomer, unassigned) [Example 5, N-[4-(1-{(4-CHLOROPHENYL)[5-(TRIFLUOROMETHYL)-1H- INDAZOL-3-YL]METHYL}BUTYL)BENZOYL]-β-ALANINE] |  |
| 2.6 | CCCC(c1ccc(C(=O)NCCC(=O)O)cc1)C(c1ccc(Cl)cc1)c1n[nH]c2c(F)cc(-c3ccc(C)cc3)cc12 (single isomer, unassigned) [Example 21, N-[4-(1-{(4-Chlorophenyl)[7-Fluoro-5-(4-Methylphenyl)-1H-Indazol-3-Yl]Methyl}Butyl)Benzoyl]-β-Alanine] | the more potent glucagon receptor antagonist |
| 37 | CCCC(c1ccc(C(=O)NCCC(=O)O)cc1)C(c1ccc(Cl)cc1)c1c2cc(C(F)(F)F)cc(Cl)c2nn1-c1ccccc1 (single isomer, unassigned) [Example 3, N-[4-(1-{(4-Chlorophenyl)[7-Chloro-2-Phenyl-5-(Trifluoromethyl)-2H-Indazol-3-Yl]Methyl}Butyl)Benzoyl]-β-Alanine] |  |
| 3.9 | CCCC(c1ccc(C(=O)NCCC(=O)O)cc1)C(c1ccc(Cl)cc1)c1c2cc(C(F)(F)F)cc(Cl)c2nn1CC(F)(F)F (single isomer, unassigned) [Example 17, N-[4-(1-{(4-CHLOROPHENYL)[7-CHLORO-2-(2,2,2- TRIFLUOROETHYL)-5-(TRIFLUOROMETHYL)-2H-INDAZOL-3- YL]METHYL}BUTYL)BENZOYL]-β-ALANINE] |  |
| 1.7 | CCCC(c1ccc(C(=O)NCCC(=O)O)cc1)C(c1ccc(Cl)cc1)c1n[nH]c2c(F)cc(-c3cccc(F)c3)cc12 (racemic) [Example 24] |  |
| 4.3 | CCCC(c1ccc(C(=O)NCCC(=O)O)cc1)C(c1ccc(Cl)cc1)c1n[nH]c2c(F)cc(C#N)cc12 (single isomer, unassigned) [Example 36, N-(4-{1-[(4-Chlorophenyl)(5-Cyano-7-Fluoro-1H-Indazol-3-Yl)Methyl]Butyl}Benzoyl)-β-Alanine] | the more potent glucagon receptor antagonist |
| 0.7 | CCCC(c1ccc(C(=O)NCCC(=O)O)cc1)C(c1ccc(Cl)cc1)c1nn(C)c2c(Cl)cc(C(F)(F)F)cc12 (single isomer, unassigned) [Example 2, N-(4-{1-[[7-Chloro-1-Methyl-5-(Trifluoromethyl)-1H-Indazol-3-Yl](4-Chlorophenyl)Methyl]Butyl}Benzoyl)-β-Alanine] |  |
| 0.2 | CCCC(c1ccc(C(=O)NCCC(=O)O)cc1)C(c1ccc(Cl)cc1)c1n[nH]c2c(Cl)cc(C(F)(F)F)cc12 (single isomer, unassigned) [Example 6, N-[4-(1-{(4-CHLOROPHENYL)[7-CHLORO-5-(TRIFLUOROMETHYL)-1H-INDAZOL- 3-YL]METHYL}BUTYL)BENZOYL]-β-ALANINE] |  |
| 2.6 | CCCC(c1ccc(C(=O)NCCC(=O)O)cc1)C(c1ccc(Cl)cc1)c1c2cc(C(F)(F)F)cc(Cl)c2nn1C (single isomer, unassigned) [Example 4, N-[4-(1-{(4-Chlorophenyl)[7-Chloro-2-Methyl-5-(Trifluoromethyl)-2H-Indazol-3-Yl]Methyl}Butyl)Benzoyl]-β-Alanine] | most potent glucagon receptor antagonist of the four stereoisomeric compounds |
| 4 | CCCC(c1ccc(C(=O)NCCC(=O)O)cc1)C(c1ccc(Cl)cc1)c1nn(C)c2c(F)cc(F)cc12 (single isomer, unassigned) [Example 10, N-[4-(1-{(4-CHLOROPHENYL)[1-METHYL-5,7-DIFLUORO-1H- INDAZOL-3-YL]METHYL}BUTYL)BENZOYL]-β-ALANINE] |  |
| 0.4 | CCCC(c1ccc(C(=O)NCCC(=O)O)cc1)C(c1ccc(Cl)cc1)c1n[nH]c2c(Cl)cc(Cl)cc12 (single isomer, unassigned) [Example 8, N-[4-(1-{(4-CHLOROPHENYL)[5,7-DICHLORO-1H-INDAZOL-3- YL]METHYL}BUTYL)BENZOYL]-β-ALANINE] |  |
| 3.3 | CCCC(c1ccc(C(=O)NCCC(=O)O)cc1)C(c1ccc(Cl)cc1)c1c2cc(C(F)(F)F)ccc2nn1C (single isomer, unassigned) [Example 13, N-[4-(1-{(4-CHLOROPHENYL)[2-METHYL-5- (TRIFLUOROMETHYL)-2H-INDAZOL-3- YL]METHYL}BUTYL)BENZOYL]-β-ALANINE] |  |
| 0.6 | CCCC(c1ccc(C(=O)NCCC(=O)O)cc1)C(c1ccc(Cl)cc1)c1n[nH]c2c(C)cc(Cl)cc12 (single isomer, unassigned) [Example 1] | most potent glucagon antagonist of the four stereoisomeric compounds |
| 1 | CCCC(c1ccc(C(=O)NCCC(=O)O)cc1)C(c1ccc(Cl)cc1)c1nn(C)c2ccc(C(F)(F)F)cc12 (single isomer, unassigned) [Example 9, N-[4-(1-{(4-CHLOROPHENYL)[1-METHYL-5-(TRIFLUOROMETHYL)-1H- INDAZOL-3-YL]METHYL}BUTYL)BENZOYL]-β-ALANINE] |  |
| 2 | CCCC(c1ccc(C(=O)NCCC(=O)O)cc1)C(c1ccc(Cl)cc1)c1c2cc(Cl)cc(Cl)c2nn1C (single isomer, unassigned) [Example 19, N-[4-(1-{(4-CHLOROPHENYL)[2-METHYL-5,7-DICHLORO-2H-INDAZOL-3- YL]METHYL}BUTYL)BENZOYL]-β-ALANINE] |  |
| 0.9 | CCCC(c1ccc(C(=O)NCCC(=O)O)cc1)C(c1ccc(Cl)cc1)c1nn(C)c2c(Cl)cc(Cl)cc12 (single isomer, unassigned) [Example 12, N-[4-(1-{(4-CHLOROPHENYL)[1-METHYL-5,7-DICHLORO-1H-INDAZOL-3- YL]METHYL}BUTYL)BENZOYL]-β-ALANINE] |  |
